Measured values: PubChem BioAssay AID179 (DTP/NCI, 2004)
Calls of active or inactive are those of the source.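 The calls were made as follows: active = compounds giving half or more protection of infected cells from virus-caused growth loss, again on retest; inactive = the rest.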 Where a SMILES comes first, the peptide text is derived from it. The star is where a group is joined. ONp = O=[N+]([O-])c1ccc(O*)cc1; Cbz = O=C(OCc1ccccc1)*; OBn = c1ccc(CO*)cc1

Test system: CEM cells HIV-1 protection, formazan growth assay
Assay: NCI AIDS Antiviral Assay
Details: for IC50: measured here: growth of uninfected CEM cells
Outline: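 Protection of CEM cells against HIV-1 was scored from cell growth (soluble formazan) across five concentrations, with parallel uninfected cells. Lack of protection may reflect toxicity.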

SMILES	EC50 [µM]	IC50 [µM]	outcome
Cc1onc(-c2c(F)cccc2Cl)c1C(=O)Nc1cc2cc([N+](=O)[O-])ccc2oc1=O	> 50.1	> 50.1	–
COC(=O)/C([Se]c1c(C)cc(C)cc1C)=C(\[Se]c1c(C)cc(C)cc1C)C(=O)OC	–	–	inactive
COc1ccc(OC)c2c3c(ccc12)C(C)(c1ccccc1)OC3=O (stereo not drawn)	> 191	89.1	–
O=c1c2cc([N+](=O)[O-])ccc2n2n1Cc1ccccc1C2	> 200	> 200	–
CSc1nc(C)cc(Nc2ccc(O)c(CN3CCCCC3)c2)n1	> 155	64.6	–
O=C1OCCN1N1CCOC1=O	> 200	> 200	–
COc1ccc2c(c1)OC[C@@H]1c3cc(NC(=O)c4ccccc4)c(OC)cc3N(S(=O)(=O)c3ccccc3)[C@H]21	> 200	> 200	–
CC(C)(C)c1cc2c3c(c1)C(C(F)(F)F)(C(F)(F)F)O[Te]3(C)OC2(C(F)(F)F)C(F)(F)F	> 31.6	> 31.6	–
CCCCN(CCCC)C(=Nc1ccccc1)N(CCCC)CCCC	> 138	24	–
CCOC(=O)c1c2c(n3ccccc13)C(=O)C(C)(C(=O)OCC)S2 (stereo not drawn)	–	–	active
[O-]c1csc2n(-c3ccccc3)c3ccccc3[n+]12	> 200	> 200	–
CC1CN(c2ccc(Cl)cc2)CC(C)OC(=O)O1 (stereo not drawn)	–	–	inactive
COc1ccc2c(c1OC)CN(C)CCc1cc3c(c(OC)c1C(=O)C2)OCO3	–	–	inactive
CC(=O)N1[C@H](C(=O)O)CS[C@H]1c1ccncc1	–	–	inactive
O=C1c2c(c3c4ccccc4[nH]c3c3[nH]c4ccccc4c23)C(=O)N1Cc1ccccc1	> 148	10.2	–
CCCCOC(=O)C1CN2C(=NC1(C(F)(F)F)C(F)(F)F)Sc1ccccc12 (stereo not drawn)	–	–	inactive
COC1Cc2ccccc2C1O (stereo not drawn)	–	–	inactive
CN=c1ssc(=S)n1C(C)C	> 200	16.2	–
Clc1ccc2noc(-c3ccccc3)c2c1	> 22.9	> 22.9	–
O=C(O)CCCCCCCCCCCF	> 200	186	–
O=C1c2ccsc2C(=O)c2sccc21	> 2	0.309	–
COc1cc2c3c(c1OC)-c1cc(O)ccc1C[C@H]3NCC2	–	–	inactive

SMILES	EC50 [µM]	IC50 [µM]	outcome
ClCCCN1CCN(CCCl)CC1	> 832	21.4	–
CC(C)(C)[Si](C)(C)OC1C(=O)C(CO)OC1n1ccc(=O)[nH]c1=O (stereo not drawn)	> 200	> 200	–
NC1(CCNC(=O)c2ccccc2)CCN(C(=O)c2ccccc2)CC1	> 200	145	–
O=C1C(Cl)=C(Cl)C(=O)N1c1ccc(F)cc1	–	–	inactive
CC1=Nc2c(ccc3c2C(=O)c2ccccc2C3=O)NC(c2ccncc2)C1 (stereo not drawn)	> 7.41	> 7.41	–
COc1cc(C(C2=C(O)c3ccccc3C(=O)C2=O)C2=C(O)c3ccccc3C(=O)C2=O)cc(Br)c1O	> 200	32.4	–
CNC1(C(=O)O)CC1	> 200	> 200	–
O=C(NN(C(=O)c1ccc([N+](=O)[O-])cc1)c1ccccc1)c1ccc([N+](=O)[O-])cc1	> 200	36.3	–
CCOC(=O)C1=C(O)c2c(sc(C)c2C)N(S(=O)(=O)c2ccc(C)cc2)CC1	> 200	52.5	–
COC(=O)c1nsc(OC)c1Cl	> 200	> 200	–
CCC[CH2][Sn]1([CH2]CCC)[O]CC(c2ccccn2)C[O]1	> 49	10.7	–
CC(C)(C)N=C(NO)c1ccccc1	–	–	inactive
O=C1/C(=C/c2ccc(Cl)cc2)Oc2cc(O)ccc21	> 200	37.2	–
O=C(/C=C(\O)C(=O)O)/C=C(\O)c1ccccc1Cl	389	589	–
COc1ccc2c(c1)OCc1c-2oc2ccccc2c1=O	> 100	> 100	–
O=C1OCCN1N1C(=O)CC2(CCN(Cc3ccccc3)CC2)C1=O	> 200	> 200	–
N#Cc1c(-c2ccccc2)cn(C(=O)c2ccccc2)c1N	> 200	191	–
CC12CCC(C(Br)C1=O)C2(C)CS(=O)(=O)O (stereo not drawn)	> 200	> 200	–
CC(=O)c1sc2c(c1OC(=O)c1ccco1)c(=O)n(-c1ccccc1)c(=S)n2-c1ccccc1	> 200	9.77	–
CC(CCOc1c2ccoc2cc2oc(=O)ccc12)C1=CC(=O)C(C)(C)O1 (stereo not drawn)	> 200	> 200	–
C=CCn1c(=O)c2ccccc2[n+]2c(C)c(C(=O)OCC)sc12	132	> 200	–
CCOC(=O)c1sc(C(=O)OCC)c2c1-c1cccc3cccc-2c13	> 200	> 200	–

SMILES	EC50 [µM]	IC50 [µM]	outcome
O=C1NC(=S)N/C1=C\c1ccc(Cl)cc1	> 200	105	–
CN1C(=O)CC(=O)N1/C(=C/c1ccccc1)c1ccccc1	> 200	155	–
O=c1cc(CN2CCCCC2)[nH]c2c1ccc1nc(CN3CCCCC3)cc(=O)n12	> 100	> 100	–
CC1C(=O)OC2C=CC3(C)C(=O)OC4OC5(c6ccoc6)CC1(O)C2(C)C43O5 (stereo not drawn)	> 200	> 200	–
CCCc1cc(=O)oc2c3c(c4c(c12)OC(C)(C)C=C4)O[C@H](C)[C@H](C)[C@@H]3O	> 87.1	6.46	–
Cc1cc(C2CCCCC2)n(O)c(=O)c1	–	–	inactive
CCCCCCCCCCCCCC(=O)CBr	–	–	inactive
CCCC/C=C\CCCCCCCCCC1=C(O)C(=O)C=C(OC)C1=O	> 55	9.33	–
CCN(C)c1nc(N(C)CC)c2nc(N(C)CC)nc(N(C)CC)c2n1	> 501	120	–
O=C(CC(C(=O)c1cccs1)c1ccsc1)c1ccccc1 (stereo not drawn)	> 200	151	–
CO[C@H]1C[C@@H]2CC[C@@H](C)[C@@](O)(O2)C(=O)C(=O)N2CCCC[C@H]2C(=O)O[C@H]([C@H](C)C[C@@H]2CC[C@@H](O)[C@H](OC)C2)CC(=O)[C@H](C)C=C(C)[C@@H](O)[C@@H](OC)C(=O)[C@H](C)C[C@H](C)/C=C/C=C/C=C1C	> 14.1	7.59	–
C1=Nc2ccc(cc2)N=Cc2ccc(cc2)OCc2cccc(n2)COc2ccc1cc2	> 100	> 100	–
CC(C)CCC[C@H](C)[C@H]1CC[C@H]2[C@@H]3CC=C4CC(OC(=O)OC5CCC6(C)CC7CCC6(OO7)C5(C)C)CC[C@]4(C)[C@H]3CC[C@]12C (stereo partly drawn)	> 200	> 200	–
CO[C@@H]1C2=CC=CC=C[C@H]2n2c(=O)n(C)c(=O)n21	> 525	79.4	–
O=C(c1ccccc1)c1nc2c(Cl)ccc(Cl)c2cc1C(Br)Br	> 2.19	> 2.19	–
CNc1ccc(/C=C/c2ccnc3ccccc23)cc1	> 200	6.31	–
CSCCCNC(=O)[C@H](CSC)NC(=O)c1csc(CCNC(=O)[C@@H](NSc2ccccc2[N+](=O)[O-])C(C)O)n1 (stereo partly drawn)	> 57.5	> 57.5	–
O=C(O)CN1CCNCCN(CC(=O)O)CCNCC1	> 200	3.63	–
O=C(CNC(=O)C(CCC(=O)OCc1ccccc1)NC(=O)OCc1ccccc1)NCC(=O)NC(CO)C(=O)NCC(=O)Oc1ccc([N+](=O)[O-])cc1 (stereo not drawn) (Cbz-E(OBn)GGSG-ONp; configuration not given here)	> 91.2	> 91.2	–
CN(C)CC1CCCC/C1=N\OC(=O)c1ccccc1 (stereo not drawn)	–	–	inactive
N/C(=N/N=C\c1nccc2ccccc12)NO	–	–	inactive
Cc1ccccc1C(C#N)/C(=N/NC(=O)C(=O)NN)C(=O)Nc1cccc(C(F)(F)F)c1 (stereo not drawn)	> 209	> 209	–

SMILES	EC50 [µM]	IC50 [µM]	outcome
c1ccc2nocc2c1	> 2090	1100	–
COc1cc2cc(C(=O)N3CC(CCl)c4c3cc([N+](C)(C)Cc3ccc([N+](=O)[O-])n3C)c3ccccc43)[nH]c2c(OC)c1OC (stereo not drawn)	> 2	1.26	–
COc1cccc2sc(-n3c(C)nc4ccccc4c3=O)nc12	> 200	> 200	–
COc1ccc2c(c1)OCCN(C)OC2c1cccc(Cl)c1 (stereo not drawn)	> 200	87.1	–
Cc1c(C)c2ccc(OCC(O)COC(C)C)c(C)c2oc1=O (stereo not drawn)	> 200	32.4	–
O=C(CC(=O)N1N=C(N(c2ccccc2)c2ccccc2)CC1c1ccccc1)Nc1cccc(Cl)c1 (stereo not drawn)	25.1	> 200	–
Cc1cc(C)n2c(-c3ccccc3)c(C)cc2n1	> 110	17.4	–
CC(NC1=NCCO1)c1ccccc1Cl (stereo not drawn)	–	–	inactive
O=C(/C=C/c1ccc([N+](=O)[O-])cc1)c1ccc(NCc2nc3ccccc3[nH]2)cc1	> 13.2	> 13.2	–
C=CCn1c(N)c(N=O)c(=O)n(CC)c1=O	> 200	> 200	–
CCCN(CC)C(=O)COc1cc2c(O)c3c(O)c(C)c4c(c13)C(=O)C(C)(O/C=C/C(OC)C(C)C(OC(C)=O)C(C)C(O)C(C)C(O)C(C)/C=C/C=C(\C)C(=O)N2)O4 (stereo not drawn)	> 200	12.9	–
CCOC(=O)C(C)(c1c[nH]c2ccccc12)c1c[nH]c2ccccc12	> 200	19.5	–
COC(=O)C1CCC(=O)C(Sc2ccccc2)C1 (stereo not drawn)	> 97.7	43.7	–
CC(C)=CCNc1ncnc2c1ncn2CCC#N	> 200	> 200	–
COc1c2c(cc3c1OCO3)C13C=CC(OC)CC1N(CC3)C2 (stereo not drawn)	> 200	> 200	–
CN(C)[C@@H]1C(=O)C(C(=O)NCNc2cccc(C(=O)O)c2C(=O)O)=C(O)[C@@]2(O)C(=O)C3=C(O)c4c(O)cccc4[C@@](C)(O)[C@H]3C[C@@H]12	> 5.89	> 5.89	–
CCCNC(=O)N(C)C(=O)N1N=C(c2ccccc2)C1c1ccccc1 (stereo not drawn)	4.57	52.5	–
O=C(Cc1nc2ccccc2s1)C(=O)Nc1ccc(Cl)cc1	–	–	inactive
CCOC(=O)N1N=C(c2ccccc2)OC2(N3CCOCC3)CCC(C(C)(C)C)CC12 (stereo not drawn)	30.2	31.6	–
CC(=O)OCC1OC(n2c(=S)[nH]c(-c3ccccc3)c(C#N)c2=O)C(OC(C)=O)C(OC(C)=O)C1OC(C)=O (stereo not drawn)	> 200	170	–
CC1(C)OCC(COC(=O)C=[N+]=[N-])O1 (stereo not drawn)	> 200	> 200	–
